The values that follow come from paper PMC11325505, “Nitrogen-Containing Flavonoids—Preparation and Biological Activity” (ACS Omega, 2024).

Values after ≈ are worked out from the molar mass of the structure shown. Like-named read-outs stand apart in the source and are kept apart here.

The subject of assay [1] is tumor necrosis factor (TNF-α) production by RAW 264.7 stimulated by LPS. Kind of assay: Anti-inflammatory activity: TNF-α production by LPS-stimulated macrophages. The class given is cell-based, Murine. As to conditions: Mus musculus, RAW264.7; LPS-stimulated RAW 264.7; average of four repetitions ± SEM; read-out: TNFα production IC50. As for the experimental part:
The anti-inflammatory activity of flavonoids was evaluated as their ability to decrease the production of signaling molecules that mediate inflammation, such as nitric oxide (NO), tumor necrosis factor (TNF-α), and interleukin 6 (IL-6), in LPS-stimulated macrophages.
The anti-inflammatory activity of the tested flavonoids was determined as the ability to reduce the production of nitric oxide (NO), tumor necrosis factor (TNF-α), and interleukin 6 (IL-6) by RAW 264.7 stimulated by LPS, as previously described.[39],[40] Briefly, 1 × 10^6 cells/mL was seeded into the 96-well plate (100 μL/well). After 48 h, LPS (100 ng/mL) and the samples (3–100 μM) were added to the MEM medium. After 24 h, the medium was mixed with Griess reagent (0.04 g/mL) at a 1:1 ratio. The absorbance was measured after 15 min at 540 nm. Cell viability was determined using the resazurin assay.
To determine TNF-α levels, cells were precultivated with the tested compounds for 24 h. After 2 h of incubation with LPS, the medium was diluted 1:10 with ELISA diluent. To determine the level of IL-6, cells were cultivated for 6 h with LPS and the tested compounds. Cytokine production was determined using an uncoated ELISA performed according to the manufacturer’s instructions.

Another assay deals with MRSA 1584. As to the kind of experiment: Mode of antimicrobial action with gentamicin, aac(6')/aph(2')-positive strain. The class given is cell-based, Staphylococcus aureus. Particulars: for effect (mode of action with gentamicin) / FIC (Fractional Inhibitory Concentration Index) / MIC: MRSA 1584; for MIC, Gentamicin [1 mg/L] yes: MRSA 1584 (aac(6')/aph(2')), with gentamicin 1 mg/L; for FIC (Fractional Inhibitory Concentration Index): with gentamicin; for MIC: Staphylococcus aureus, 24 h, read-out: MIC, Gentamicin [1 mg/L] no, without gentamicin. From the text: Among the mechanisms of resistance to gentamicin previously described in S. aureus, the presence of enzymes that alter the structure of aminoglycosides is crucial. These enzymes can transfer nucleotides, phosphates, or acetyls to various −OH or −NH2 groups of gentamicin, preventing its subsequent interaction with the cellular target, i.e., the 30S ribosomal subunit. The bifunctional aminoglycoside-modifying enzyme with acetylation and phosphotransferase activities encoded by the gene aac(6’)/aph(2’), 4′,4″ adenyltransferase encoded by the aadD gene, and aminoglycoside O-phosphotransferase encoded by the gene aph(3′) are the most important.[37] […] For this reason, further testing continued using strains MRSA 3596 and MRSA 1584, which inactivate gentamicin only by a single mechanism (aadD and aac(6’)-aph(2’’), respectively).
(§1) Sensitization of multidrug-resistant clinical bacterial strains was performed according to ref[15]. Antibiotic cutoff concentration was chosen according to the European Committee on Antimicrobial Susceptibility Testing (EUCAST, Clinical breakpoints–bacteria, ver. 11.0). The 200 μM concentration of the derivatives was chosen as the highest test concentration. The absorbance detected at 600 nm was then used to estimate the number of viable cells after 24 h of incubation at 37 °C and 120 rpm.
(§2) Experiments were performed with the respective number of replicates indicated in each figure/table. MIC was determined as IC70. Both IC70 and IC50 values were calculated using the following nonlinear regression in the software GraphPad Prism: […]

The subject of assay [2] is immortalized human keratinocytes (HaCaT). As to the kind of experiment: Cytotoxicity (resazurin assay), keratinocytes. The class given is cell-based. Particulars: Homo sapiens, HaCaT, 72 h, read-out: HaCaT IC50 (concentration that halved the viability). The procedure:
The cytotoxicity of the prepared derivatives was evaluated by their ability to decrease the viability of immortalized human keratinocytes (HaCaT) and human dermal fibroblasts (HDF).
100 μL of cell suspension containing 10^5 cells/mL was pipetted into a 96-well plate. After 24 h incubation, the tested compounds were added in the concentration range 12.5–200 μM. After 72 h incubation, the cell viability was tested by standard resazurin assay.[41] Briefly, the cells were washed with PBS and incubated with 100 μL of resazurin solution (0.025 mg/mL) for 2 h. The fluorescence was measured at a wavelength of 560 nm excitation/590 nm emission.
(In general: The colour change of resazurin is a common sign of viable cells or microbes.)

The test system of the next assay is S. aureus CCM 4223. Kind of assay: Antibacterial activity, antibiotic-sensitive strain. The class given is cell-based. Particulars: Staphylococcus aureus, CCM4223, three repetitions ± SEM.
Assay [3] relates to Staphylococcus aureus MRSA 9. Kind of assay: Modulation of antibiotic-resistant phenotype (flavonoid plus breakpoint concentration of antibiotic). The class given is cell-based. As to conditions: MIC determined as IC70, three repetitions ± SEM; for minimum inhibitory concentration (MIC) in the presence of erythromycin: erythromycin at breakpoint concentration 1 mg/L. As for the experimental part:
To evaluate the ability to modulate bacterial resistance, the tested flavonoids themselves cannot exert antimicrobial activity; therefore, the nontoxic concentration was used, as indicated in Table S5. Clinically relevant antibiotics were selected at breakpoint concentrations for susceptibility testing according to the European Committee on Antimicrobial Susceptibility Testing (EUCAST, version 11.0). […] Flavonoids and their derivatives (from 1 μM to the highest nontoxic concentration) were used in combination with the breakpoint concentration of the antibiotics. After coincubation, the minimum inhibitory concentration (MIC) of flavonoids inhibiting the visible growth of bacteria was determined (Table 2).
as §1, §2

The test system of the next assay is RAW 264.7 cells. As to the kind of experiment: Cellular antioxidant activity (CAA). The class given is cell-based, Murine. As to conditions: for change of antioxidant activity compared to the parent compound, in words: CAA in macrophages; for IC50: Mus musculus, RAW264.7, macrophages RAW 264.7, average of four repetitions ± standard error of the mean. The procedure:
To evaluate the antioxidant activity of the prepared derivatives and the respective parent compounds, cellular antioxidant activity (CAA) was measured in macrophages. Compared to other in vitro antioxidant assays, this method provides partial information about the uptake and metabolism of the compounds, because, in this assay, they must first enter the cell to exert antioxidant activity.[31] […] Derivatization of quercetin at C-8 with 4-fluoroaniline (5) increased the antioxidant activity of quercetin by 1.7-fold. […] The concentration of these derivatives required to halve the cellular radicals decreased 1.5-fold compared to luteolin.
Cellular antioxidant capacity was evaluated as previously described.[31],[39] Briefly, 100 μL of RAW 264.7 cells with a density corresponding to 1 × 10^6 cells/mL were split into 96-well plates. After 24 h, cells were washed with PBS, and DMEM supplemented with DCFH-DA (0.0125 mg/mL) was added to each well together with the tested samples in the concentration range of 1.5–200 μM. After 1 h incubation in a CO2 incubator, the medium was replaced with AAPH solution (0.16 mg/mL in PBS), and fluorescence was immediately recorded (ex./em. 485/540 nm) for 2 h in 5 min intervals.

Take `O=c1cc(-c2ccc(O)c(O)c2)oc2c(Nc3ccc(C(F)(F)F)cc3)c(O)cc(O)c12` [compound 14, 2-(3,4-Dihydroxyphenyl)-8-(4-(trifluoromethyl)anilino)-5,7-dihydroxy-4H–1-benzopyran-4-one]: in assay [1], the IC50 is above 25 µM. Besides, in the assay with MRSA 1584, the “effect (mode of action with gentamicin)” value is reported as “indifferent (> 1 to < 2 indicates indifference)”; the “MIC, Gentamicin [1 mg/L] yes” value worked out at 26.1 ± 1.6 µM (≈ 11.6 µg/mL); the “FIC (Fractional Inhibitory Concentration Index)” value was 1.71 ± 0.26; the MIC was 15.3 ± 1.3 µM (≈ 6.81 µg/mL). In assay [2], the IC50 is 26.8 ± 1.6 µM. For the same compound, the IC50 with S. aureus CCM 4223 worked out at 15.3 ± 0.7 µM. For the same compound, the “minimum inhibitory concentration (MIC) in the presence of erythromycin” value in assay [3] is listed as >15 ^note 5 μM. In the assay with RAW 264.7 cells, the “change of antioxidant activity compared to the parent compound, in words” value was “significantly decreased the antioxidant activity” and the IC50 is above 12.5 µM.
`O=c1cc(-c2ccc(O)c(O)c2)oc2c(Nc3cccc(F)c3)c(O)cc(O)c12` [compound 15, 2-(3,4-Dihydroxyphenyl)-8-(3-fluoroanilino)-5,7-dihydroxy-4H–1-benzopyran-4-one]: the IC50 in assay [1] is above 25 µM. Further, in the assay with MRSA 1584, the “effect (mode of action with gentamicin)” value is given as “additive (> 0.5-1 indicates additive effects)”; the “MIC, Gentamicin [1 mg/L] yes” value was 27.6 ± 0.5 µM (≈ 10.9 µg/mL); the “FIC (Fractional Inhibitory Concentration Index)” value was 0.96 ± 0.02; the MIC is 28.6 ± 0.1 µM (≈ 11.3 µg/mL). Further, the IC50 in assay [2] (72 h incubation, resazurin, average of three repetitions ± SEM) is 26 ± 5.8 µM. For the same compound, the IC50 in the assay with S. aureus CCM 4223 worked out at 28 ± 2.2 µM. In addition, the “minimum inhibitory concentration (MIC) in the presence of erythromycin” value in assay [3] was above 200 µM. For the same compound, the “minimum inhibitory concentration (MIC) in the presence of gentamicin” value in assay [3] (gentamicin at breakpoint concentration 1 mg/L) is 12.4 ± 0.3 µM. Moreover, in the assay with RAW 264.7 cells, the “change of antioxidant activity compared to the parent compound, in words” value is on record as “significantly decreased the antioxidant activity” and the IC50 came to 6.7 ± 0.2 µM.
